The source of these data is patent US6306847A, “Condensed purine derivatives” (Kyowa Hakko Kogyo Co., Ltd., priority 1996, dated 2001).

Structures are written as SMILES. Where a name gives a salt, the structure may show the parent alone. Read-outs that look alike come from different tables or passages of the source.

Series [1] concerns the target T1, human adenosine A3 receptors (Homo sapiens, UniProt P0DMS8).
T1 construct: expressed in transfected cells; host or cells: HEK293
T1 sequence (P0DMS8 1-318): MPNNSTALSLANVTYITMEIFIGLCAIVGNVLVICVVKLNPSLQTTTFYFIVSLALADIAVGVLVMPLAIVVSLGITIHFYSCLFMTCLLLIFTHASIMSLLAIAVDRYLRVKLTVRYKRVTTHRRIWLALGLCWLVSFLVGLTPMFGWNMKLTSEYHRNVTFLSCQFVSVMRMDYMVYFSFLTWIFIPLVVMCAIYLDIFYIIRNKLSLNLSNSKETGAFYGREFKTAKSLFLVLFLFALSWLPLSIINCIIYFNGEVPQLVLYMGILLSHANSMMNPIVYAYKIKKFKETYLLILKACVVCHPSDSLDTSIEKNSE
As to the kind of experiment: Test of adenosine A3 receptor binding ([125I]AB-MECA, transfected HEK293 cell homogenate). The conditions noted are these: for inhibition at 0.01 µM: read-out: The rate of inhibition (%) 10^-8 M; for inhibition at 0.1 µM: read-out: The rate of inhibition (%) 10^-7 M. The procedure: The transfected HEK293 cells that expressed the human adenosine A3 receptors were homogenized in 5 mM tris(hydroxymethyl)aminomethane hydrochloric acid buffer containing 5 mM magnesium chloride (pH 7.6) by a Teflon homogenizer (Iuchiseieido Corp.). The resultant suspension was centrifuged (4000×g, 20 minutes), and a 50 mM tris(hydromethyl)aminomethane/10 mM magnesium chloride/hydrochloric acid buffer (pH 7.6) (referred to as "the Tris-HCl buffer" hereinafter) was added to the precipitate to generate the cell suspension ( the protein concentration 0.25 mg/ml). To the cell suspension was added adenosine deaminase so that the concentration was 2 U/ml, and the resultant mixture was used in the following binding experiment.
The glass fiber filter was transferred to a polypropylene tube, and the radioactivity was measured by a gamma counter (Packard Corp.).
(Rate of inhibition)=(A-B)/(C-D)×100
A: Amount of binding in the presence of the test compound
B: Amount of non-specific binding
C: Amount of total binding
D: Amount of non-specific binding

The test system of another series is ddY mice. The conditions noted are these: mouse, in vivo. The text has this:
A group consisting of three ddY mice (Japanese SLC) having a body weight of 19 to 21 g was used. One week after oral administration of compound 5, death of the mice was observed.

Series [2] relates to compound 48/80 induced pruritic action. As to the kind of experiment: Test of inhibition of compound 48/80 induced pruritic action (scratching behavior in mice). Format: in vivo, ddy mice. To be noted: for (A) The number of scratching behavior/10 minutes: compound 48/80 0.5 mg/kg s.c., n=10; for (B) The rate of inhibition (%): number of scratching behavior relative to control group. The procedure:
A group consisting of 10 ddy mice (Japanese SLC) having a body weight of […] was used in the test. After compound 5 was orally administered, 0.5 mg/kg of compound 48/80 was subcutaneously administered in a volume of 0.1 ml per 20 g. 10 minutes after administration of compound 48/80, the number of scratching behavior was measured for 10 minutes. The rate of inhibition of the group of mice administered with compound 5 relative to the number of scratching behavior of a control group was calculated, and ED50 was calculated from the rate of inhibition.

The mark [3] stands for this setting: 10^-7 M test compound, [125I]AB-MECA 0.1 nM.
[4] abbreviates: 10^-8 M test compound, [125I]AB-MECA 0.1 nM.

With `CCCCN1C(=O)N2CCN=C2c2[nH]c(-c3ccc(Br)cc3)nc21` [Compound 26, 2-(p-Bromophenyl)-4-n-butyl-1,4,7,8-tetrahydro-5H-imidazo[2,1-i]purine-5-one hydrochloride], the inhibition at 0.01 µM in series [1] was 85%.
For the molecule `CCOC(=O)/C=C/c1ccc(-c2nc3c([nH]2)C2=NCCN2C(=O)N3CC)cc1` [Compound 13, Ethyl (E)-4-(4-ethyl-1,4,7,8-tetrahydro-5H-imidazo [2,1-i]purine-5-one-2-yl)cinnamate], the inhibition at 0.1 µM in series [1] (setting [3]) came out at 76%. Moreover, the inhibition at 0.01 µM in series [1] (setting [4]) was 75%.
On to `CCCN1C(=O)N2CCN=C2c2[nH]c(-c3ccc(Br)cc3)nc21.Cl` [Compound 5, 2-(p-Bromophenyl)-4-propyl-1,4,7,8-tetrahydro-5H-imidazo [2,1-i]purine-5-one hydrochloride], for which the “death of the mice” value in the series with ddY mice was “no death was observed”. Further, the results for the “(A) The number of scratching behavior/10 minutes” value in series [2] (30 mg/kg p.o.), in series [2] (100 mg/kg p.o.) and in series [2] (300 mg/kg p.o.) were 10.70 ± 4.45 /10 minutes, 7.60 ± 3.12 /10 minutes and 6.00 ± 2.88 /10 minutes, respectively. The entries for the “(B) The rate of inhibition (%)” value in series [2] (30 mg/kg p.o.), in series [2] (100 mg/kg p.o.) and in series [2] (300 mg/kg p.o.) were 34.0%, 53.1% and 63.0%, respectively. The ED50 in series [2] (Mus musculus, po, calculated from the rate of inhibition) was 96.8 mg/kg. Besides, in series [2] (p.o., mice), the “inhibitory action on the compound 48/80 induced itching” value is “exhibited its inhibitory action”.
With `CCOC(=O)/C=C/c1ccc(-c2nc3c([nH]2)C2=NC(CC)CN2C(=O)N3CC)cc1` (centres unmarked) [Compound 16, Ethyl (E)-4-(4,8-diethyl-1,4,7,8-tetrahydro-5H-imidazo-[2,1-i]purine-5-one-2-yl)cinnamate], the inhibition at 0.1 µM in series [1] (setting [3]) came out at 92%. Also, the inhibition at 0.01 µM in series [1] (setting [4]) was determined as 17%.
For `CCCN1C(=O)N2C[C@@H](c3ccccc3)N=C2c2[nH]c(-c3ccc(Br)cc3)nc21` [Compound 35, (R)-2-(p-Bromophenyl)-8-phenyl-4-propyl-1,4,7,8-tetrahydro-5H-imidazo[2,1-i]-purine-5-one] the same measures were 52% and 94%.
`CCCN1C(=O)N2CC(CC)N=C2c2[nH]c(-c3ccc(Br)cc3)nc21` (centres unmarked) [Compound 8, 2-(p-Bromophenyl)-8-ethyl-4-propyl-1,4,7,8-tetrahydro-5H-imidazo[2,1-i]purine-5-one hydrochloride]: the inhibition at 0.1 µM in series [1] came out at 96%.
For the molecule `CCC1CN2C(=O)N(CC)c3nc(-c4ccc(/C=C/C(=O)O)cc4)[nH]c3C2=N1` (centres unmarked) [Compound 17, (E)-4-(4,8-Diethyl-1,4,7,8-tetrahydro-5H-imidazo [2,1-i]-purine-5-one-2-yl)cinnamic acid], in series [1] (setting [3]), the inhibition at 0.1 µM is 70%. The inhibition at 0.01 µM in series [1] (setting [4]) was determined as 36%.
The like results for `CCN1C(=O)N2CCCN=C2c2[nH]c(-c3ccc(Br)cc3)nc21` [Compound 2, 2-(p-Bromophenyl)-4-ethyl-1,4,5,7,8,9-hexahydropyrimido [2,1-i]purine-5-onehydrochloride] were, in that order, 55% and 29%.
On to `CCC1CN2C(=O)N(C)c3nc(-c4ccc(Br)cc4)[nH]c3C2=N1` (centres unmarked) [Compound 25, 2-(p-Bromophenyl)-8-ethyl-4-methyl-1,4,7,8-tetrahydro-5H-imidazo[2,1-i]purine-5-one hydrochloride], for which, in series [1], the inhibition at 0.1 µM came to 97% and the inhibition at 0.01 µM was determined as 94%.
Take `CCOC(=O)/C=C/c1ccc(-c2nc3c([nH]2)C2=NCCCN2C(=O)N3CC)cc1` [Compound 14, Ethyl (E)-4-(4-ethyl-1,4,5,7,8,9-hexahydropyrimido [2,1-i]purine-5-one-2-yl)cinnamate]: in series [1] (setting [3]), the inhibition at 0.1 µM turned out to be 55%. Also, in series [1] (setting [4]), the inhibition at 0.01 µM is 29%.
Regarding `CCCN1C(=O)N2CCCN=C2c2[nH]c(-c3ccc(Br)cc3)nc21` [Compound 6, hydrochloride], in series [1] (setting [4]), the inhibition at 0.01 µM turned out to be 98%.
As for `CCN1C(=O)N2CC(C)N=C2c2[nH]c(-c3ccc(Br)cc3)nc21` (centres unmarked) [Compound 3, 2-(p-Bromophenyl)-4-ethyl-8-methyl-1,4,7,8-tetrahydro-5H-imidazo [2,1-i]-purine-5-one hydrochloride], in series [1], the inhibition at 0.1 µM came to 96% and the inhibition at 0.01 µM came to 65%.
Turning to `CCCN1C(=O)N2C[C@@H](C(C)C)N=C2c2[nH]c(-c3ccc(Br)cc3)nc21` [Compound 32, (R)-2-(p-Bromophenyl)-8-isopropyl-4-propyl-1,4,7,8-tetrahydro-5H-imidazo[2,1-i]purine-5-one], in series [1] (setting [3]), the inhibition at 0.1 µM amounted to 120%. Further, the inhibition at 0.01 µM in series [1] (setting [4]) was 84%.
The like results for `CCN1C(=O)N2CCCN=C2c2[nH]c(-c3ccc(/C=C/C(=O)O)cc3)nc21` [Compound 15, (E)-4-(4-Ethyl-1,4,5,7,8,9-hexahydropyrimido [2,1-i]-purine-5-one-2-yl)cinnamic acid] were, in that order, 66% and 21%.
The like results for `CCCN1C(=O)N2C[C@H](C(C)C)N=C2c2[nH]c(-c3ccc(Br)cc3)nc21` [Compound 33, (S)-2-(p-Bromophenyl)-8-isopropyl-4-propyl-1,4,7,8-tetrahydro-5H-imidazo[2,1-i]purine-5-one] were, in that order, 95% and 89%.
As to `CCN1C(=O)N2CCN=C2c2[nH]c(-c3ccc(Br)cc3)nc21` [Compound 1, 2-(p-Bromophenyl)-4-ethyl-1,4,7,8-tetrahydro-5H-imidazo[2,1-i]purine-5-one hydrochloride], in series [1], the inhibition at 0.1 µM was found to be 97% and the inhibition at 0.01 µM was 88%.
For `CCC1CN2C(=O)N(CC)c3nc(-c4ccc(Br)cc4)[nH]c3C2=N1` (centres unmarked) [Compound 4, 2-(p-Bromophenyl)-4,8-diethyl-1,4,7,8-tetrahydro-5H-imidazo[2,1-i]purine-5-one hydrochloride] the same measures were 90% and 73%.
